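Interpolation was linear, between the two tested concentrations surrounding the appropriate level; five concentrations were tested over 48 hours in 96-well plates. GI50 marks 50% less growth. TGI marks complete inhibition of growth.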
Assays:
Assay in all cases: growth of human tumour cells (NCI), 48 h
ACHN renal = test system: ACHN renal
BT-549 breast = test system: BT-549 breast
K-562 leukemia = test system: K-562 leukemia
MALME-3M melanoma = test system: MALME-3M melanoma
MOLT-4 leukemia = test system: MOLT-4 leukemia
NCI-H460 lung = test system: NCI-H460 lung
T-47D breast = test system: T-47D breast
UACC-257 melanoma = test system: UACC-257 melanoma
UO-31 renal = test system: UO-31 renal
NCI-H226 lung = test system: NCI-H226 lung

SMILES	GI50 (ACHN renal) [µM]	TGI (ACHN renal) [µM]	GI50 (BT-549 breast) [µM]	TGI (BT-549 breast) [µM]	GI50 (K-562 leukemia) [µM]	TGI (K-562 leukemia) [µM]	GI50 (MALME-3M melanoma) [µM]	TGI (MALME-3M melanoma) [µM]	GI50 (MOLT-4 leukemia) [µM]	TGI (MOLT-4 leukemia) [µM]	GI50 (NCI-H460 lung) [µM]	TGI (NCI-H460 lung) [µM]	GI50 (T-47D breast) [µM]	TGI (T-47D breast) [µM]	GI50 (UACC-257 melanoma) [µM]	TGI (UACC-257 melanoma) [µM]	GI50 (UO-31 renal) [µM]	TGI (UO-31 renal) [µM]	TGI (NCI-H226 lung) [µM]	GI50 (NCI-H226 lung) [µM]
COc1ccc(C2C3=C(NC(=O)C2C#N)c2ccc4ccccc4c2OCC3)cc1 (stereo not drawn)	21.9	59.5	20.4	60.6	> 100	> 100	34.9	77.3	> 100	> 100	66.2	> 100	> 100	> 100	36.5	82.8	64.1	> 100	–	–
COc1ccc(-c2cc(C(=O)Nc3cccc(C(F)(F)F)c3)[nH]c(=S)n2)cc1	–	> 100	–	–	–	> 100	–	> 100	–	> 100	–	> 100	–	–	–	> 100	–	> 100	> 100	–
O=C1OCC(c2ccc(O)c(O)c2)=C1c1cc(O)c(O)c(O)c1	33.3	> 100	39	> 100	21.2	46.1	> 100	> 100	12.9	27.8	35.3	> 100	23.2	60.2	93.8	> 100	63.4	> 100	> 100	69
CC(C)(C)c1nc2c(o1)C(=Nc1ccccc1)c1ccccc1C2=O	–	26.6	–	–	–	44.8	–	3.01	–	> 100	–	19.9	–	–	–	4.45	–	24.3	23.5	–
O=C(NO)c1ccc(C(=O)NO)cc1	–	> 100	–	–	–	> 100	–	51.4	–	92.9	–	> 100	–	> 100	–	> 100	–	> 100	> 100	–
O=[N+]([O-])c1ccccc1S(=O)c1ccccc1 (stereo not drawn)	–	> 100	–	–	–	> 100	–	> 100	–	> 100	–	> 100	–	–	–	> 100	–	> 100	> 100	–
CCOC(C)OCC#CCCBr (stereo not drawn)	–	> 100	–	–	–	> 100	–	> 100	–	> 100	–	> 100	–	–	–	> 100	–	> 100	–	–
[Cu+2].[Cu+2].[O-]c1ccccc1C=Nc1ccccc1[O-].[O-]c1ccccc1C=Nc1ccccc1[O-]	7.81	20.8	–	–	4.07	52.9	13.7	27.3	2.99	9.97	–	–	–	–	10.4	22.3	12.6	25.2	36.5	20.4
O=C(Cc1ccccc1)Oc1ccc2c(-c3ccccc3)c(C(=O)Nc3ccc(Cl)cc3)c(=O)oc2c1	–	> 100	–	–	–	> 100	–	> 100	–	> 100	–	> 100	–	–	–	> 100	–	> 100	> 100	–
COc1cc2c(cc1OC)C1c3ccccc3C(C#N)(C2)N(C(=O)c2ccccc2)C1O (stereo not drawn)	–	> 100	–	–	–	> 100	–	> 100	–	> 100	–	> 100	–	–	–	> 100	–	> 100	> 100	–

Source: PubChem BioAssay (NCI)
